Series [1] has as its target T1, CYP3A4 (Homo sapiens, UniProt P08684). Briefly: Rate of hydroxylation of BOM-09B by CYP 3A4. In kind it is biochemical. The protocol: The racemic compound mixture (designated BOM-09B) was tested for activity with cytochrome P450 isozymes. […] The CYP 3A4 assay was performed in a 96-well plate at 37° C. in a volume of 100 μL/well. BOM-09B was diluted from a stock solution of 1 mM in acetonitrile to a 4×concentration of 80 μM in 100 mM K+ phosphate buffer of which 25 μl was added to the appropriate wells. […] The cytochrome P450 isozyme CYP3A4 was diluted to give a 2 pmol enzyme per well. Enzymic conversion of the substrate to products was allowed to proceed for 1 hour with fluorescence reads taken every 4 minutes on a fluorescence microtiter plate reader. The solution was illuminated with an 395/25 nm excitation filter and fluorescence emission was detected through a 460/40 nm the emission filter.

The target of the next series is CYP2D6 (Homo sapiens, UniProt P10635). Briefly: Apparent inhibition constants of drugs for CYP 2D6 with MOBFC as sensor. The protocol:
CYP 2D6 was incubated with 10 μM concentrations of various known inhibitors and drug substrates and residual CYP 2D6 activity assayed with the fluorogenic substrate MOBFC. The assay was performed in a 96-well plate at room temp and at a volume of 100 μl/well. 4×enzyme buffer was prepared and 25 μl was added to each well on the plate, for final assay concentrations of 3.3 mM glucose-6-phosphate, 0.4 units/ml glucose-6-phosphate dehydrogenase and 10 mM MgCl2 in 100 mM K+ phosphate, pH 8.0. […] Six consecutive 1:3 dilutions were made and 50 μl of each was added to appropriate wells on the assay plate. The CYP2D6 was diluted to a solution of 2 pmol/10 μl in 100 mM K+ phosphate and 10 μl was added to each well. 20 μl of buffer was added to each well containing standard. The drug inhibitors were allowed to pre-incubated with the CYP 2D6 enzyme for 1 hr prior to the addition of the MOBFC substrate. […] Hydroxy-trifluoro-methylcoumarin was diluted to 100 μM in K+ phosphate buffer, and seven consecutive 1:2 dilutions were made. […] After addition of 10 μl of 13 mM NADP+ solutions to all wells the assay plate was placed into the fluorescence microtiter plate reader and fluorescence measured at 3 minute intervals for 60 minutes.

For series [2], the target named is T1, CYP3A4. Briefly: Kinetic properties of fluorescein-based fluorogenic substrates with CYP 3A4. In kind it is biochemical. Here is the method:
Dibenzylfluorescein (DBF) was purchased form Gentest, Woburn, Mass. […] DBF, BOMF and DBOMF were diluted from a stock solution of 2 mM in acetonitrile to a 4×concentration of 80 μM in 100 mM K+ phosphate buffer. Seven 1:2 dilutions were made of each substrate of which 25 μl was added to the appropriate wells. […] The cytochrome P450 isozyme CYP3A4 was diluted to give a 0.5 pmol enzyme per well and added in a volume of 10 μl/well in K+ phosphate, pH 8.0. Enzymatic conversion of the substrate to products was allowed to proceed for 1 hour with fluorescence reads taken every four minutes on a fluorescence microtiter plate reader. The solution was illuminated using an 485/20 nm excitation filter and fluorescence emission was detected through a 530/25 nm the emission filter.

The next series has as its target CYP2C9 (Homo sapiens, UniProt P11712). Description: Kinetic properties of substrate BOMF with CYP 2C9 (Tris-HCl buffer). In kind it is biochemical.
Series [3] concerns the target T1, CYP3A4. Briefly: Kinetic properties of fluorogenic substrates with CYP 3A4. In kind it is biochemical. From the text:
For further understanding these terms in the context of this invention, attention is directed to FIG. 4 and the analysis of FIG. 4.
(respectively, MFC and MR).

For the next series, the target named is T2, CYP 2B6 (Homo sapiens, UniProt P20813).
T2 sequence (P20813 1-491): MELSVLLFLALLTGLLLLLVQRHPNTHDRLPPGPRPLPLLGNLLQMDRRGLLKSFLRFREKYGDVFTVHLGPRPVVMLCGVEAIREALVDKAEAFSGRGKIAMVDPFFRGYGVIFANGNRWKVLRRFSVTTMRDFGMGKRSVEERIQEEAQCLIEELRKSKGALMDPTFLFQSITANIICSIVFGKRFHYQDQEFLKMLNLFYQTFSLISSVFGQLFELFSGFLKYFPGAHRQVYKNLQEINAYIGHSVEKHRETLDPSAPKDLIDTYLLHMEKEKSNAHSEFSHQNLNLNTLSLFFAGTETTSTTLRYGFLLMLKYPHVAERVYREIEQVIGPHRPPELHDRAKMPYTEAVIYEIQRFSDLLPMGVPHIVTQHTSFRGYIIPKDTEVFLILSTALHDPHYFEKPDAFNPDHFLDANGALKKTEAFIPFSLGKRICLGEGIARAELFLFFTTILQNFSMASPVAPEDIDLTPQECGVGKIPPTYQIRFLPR
Description: Kinetic properties of fluorogenic substrates with CYP 2B6. In kind it is biochemical.

Series [4] addresses T1, CYP3A4. Description: Kinetics of BOMR and BR toward CYP 3A4 (FIG. 4). In kind it is biochemical. The settings on record: BOMR versus BR. The source says:
Whichever of the four abstractable hydrogen atoms (designated H^1 and H^2 in this representation of BOMR) is removed in the initial reaction step, with reference to Reaction Scheme 1 of FIG. 1, the hydroxylation product will spontaneously decompose to the free resorufin dye. In addition, the benzyloxy group, attached to the carbon carrying the two hydrogens designated H^2, contributes an inductive electronic effect on that carbon, which can stabilize the radical formed during abstraction of one of the H^2 hydrogens by a cytochrome P450.
Optimization of assay conditions was, and is preferably, accomplished through statistically validated Design of Experiments methodologies, using the commercial software package “Design-Expert®” produced by Stat-Ease® Inc. The data shown in FIGS. 4 and 5 were obtained with initial optimization.

The target of series [5] is T1, CYP3A4. Description: Fluorescence signal from enzymatic metabolism over reagent addition background, CYP3A4. In kind it is biochemical. The note with it: BOMR vs benzylresorufin (FIG. 8); BOMCC vs BFC (FIG. 9). Here is the method: The assays were performed in a 96-well plate at room temperature and at a volume of 100 μl/well. […] (See Table 11.) The enzyme was made up in the appropriate K+ phosphate buffer at 10× and 10 μl/well was-added to the appropriate wells. (See Table 11.) The plate was read at 3 minute intervals for 12 minutes to obtain a background fluorescence levels. Readings were briefly interrupted to allow for the addition of 10 μl of 10×NADP+ in K+ phosphate buffer to each well. (See Table 11.) The readings were resumed at 3 minute intervals for another 12 minutes. […] To permit quantitative comparison between sensors that were or would be metabolized to yield fluorescent products of differing optical properties, the signal intensity corresponding to each well was normalized by division with the initial signal intensity (wells containing enzyme and buffer). […] The later increase in signal, approximately four minutes after the second addition and at later time points, is believed to be due to the enzymatic conversion of the substrate to the product. […] [table]

Series [6] concerns the target T1, CYP3A4.
Series [7] addresses T1, CYP3A4. Description: in vitro. The settings on record: pH 8, % inhibition; for inhibition at 20 min, 10 µM: Condition A; for inhibition at 40 min, 10 µM: Condition B.
Substrate in series [8]: CCCCCCCCOCOc1ccc2nc3ccc(=O)cc-3oc2c1
Description: Kinetic properties of fluorogenic substrates with CYP 2C9. In kind it is biochemical, human. The note with it: other: — = too low to quantify.

Substrate in series [9]: COCOc1ccc2cc(C#N)c(=O)oc2c1
The series is described as above. In kind it is biochemical, human. The note with it: other: — = too low to quantify.

Substrate in series [10]: COc1ccc(COc2ccc3c(C(F)(F)F)cc(=O)oc3c2)cc1
The description is as above. In kind it is biochemical, human. The note with it: other: — = too low to quantify.

Substrate in series [11]: COc1ccc(COc2ccc3nc4ccc(=O)cc-4oc3c2)cc1
The description is as above. In kind it is biochemical, human. The note with it: other: — = too low to quantify.

Substrate in series [12]: COc1ccc2cc(C#N)c(=O)oc2c1
Described as above. In kind it is biochemical, human. The note with it: other: — = too low to quantify.

Substrate in series [13]: N#Cc1cc2ccc(OCOCc3ccccc3)cc2oc1=O
The description is as above. In kind it is biochemical, human. The note with it: other: — = too low to quantify.

Substrate in series [14]: O=C(O)c1ccccc1-c1c2ccc(=O)cc-2oc2cc(OCOCc3ccccc3)ccc12
Briefly: Kinetic properties of substrate BOMF with CYP 2C9 (Tris-HCl buffer). In kind it is biochemical, human. The note with it: other: 200 mM Tris-HCl buffer, pH 7.5.

The mark [15] stands for this setting: turnover rate at 1.25 uM substrate, — = too low to quantify.
Where [16] appears, read: turnover rate at 10 uM substrate, — = too low to quantify.

Sequence of CYP2D6 (P10635 whole entry): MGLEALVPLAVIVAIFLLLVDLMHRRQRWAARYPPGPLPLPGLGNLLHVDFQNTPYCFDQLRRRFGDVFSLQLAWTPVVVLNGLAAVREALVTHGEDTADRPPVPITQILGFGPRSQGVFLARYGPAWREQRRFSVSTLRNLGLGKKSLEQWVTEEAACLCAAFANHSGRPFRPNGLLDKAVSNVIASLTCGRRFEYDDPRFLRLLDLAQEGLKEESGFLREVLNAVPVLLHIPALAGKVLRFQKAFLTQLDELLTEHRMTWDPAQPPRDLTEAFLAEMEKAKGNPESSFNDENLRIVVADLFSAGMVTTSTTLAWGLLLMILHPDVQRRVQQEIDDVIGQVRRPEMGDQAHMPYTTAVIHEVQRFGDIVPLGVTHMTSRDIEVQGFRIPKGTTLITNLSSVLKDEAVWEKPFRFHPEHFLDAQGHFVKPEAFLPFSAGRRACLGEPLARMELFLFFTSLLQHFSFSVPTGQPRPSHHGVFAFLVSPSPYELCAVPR
T1 sequence (P08684 whole entry): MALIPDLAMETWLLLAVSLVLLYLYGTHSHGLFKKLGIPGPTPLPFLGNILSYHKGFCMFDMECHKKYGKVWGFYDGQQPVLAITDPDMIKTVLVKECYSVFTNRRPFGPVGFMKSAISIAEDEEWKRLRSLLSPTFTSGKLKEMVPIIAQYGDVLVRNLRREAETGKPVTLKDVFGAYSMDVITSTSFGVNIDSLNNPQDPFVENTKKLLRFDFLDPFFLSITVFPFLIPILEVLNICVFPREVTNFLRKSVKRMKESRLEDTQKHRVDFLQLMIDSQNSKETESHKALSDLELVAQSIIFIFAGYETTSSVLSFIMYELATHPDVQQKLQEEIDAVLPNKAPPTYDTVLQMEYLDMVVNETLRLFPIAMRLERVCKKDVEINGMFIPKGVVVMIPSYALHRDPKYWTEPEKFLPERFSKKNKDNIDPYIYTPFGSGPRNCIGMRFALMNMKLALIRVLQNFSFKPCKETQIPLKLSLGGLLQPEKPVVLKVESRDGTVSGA

On to `NC1CCCCC1NC(=O)c1cc2ccc(OCOCc3ccccc3)cc2oc1=O` (racemic) [BOM-09B], for which the conversion rate on CYP3A4 [1] (20 μM substrate, 37° C., 2 pmol enzyme per well) is listed as 0.75 pmol substrate/pmol enzyme·min. For the same molecule, the “rate of conversion compared with BOMCC” value on CYP3A4 [1] (identical conditions) is given as “half that of BOMCC”.

Turning to `CC[C@H]1[C@@H]2C[C@H]3[C@@H]4N(C)c5ccccc5[C@]45C[C@@H]([C@@H]2[C@H]5O)N3[C@@H]1O` [Amjaline], the Ki at CYP2D6 was more than 30 µM.

As to `O=C(O)c1ccccc1-c1c2ccc(=O)cc-2oc2cc(OCOCc3ccccc3)ccc12` [BOMF, Benzyloxymethylfluorescein], the type of kinetics result at CYP3A4 [2] and at CYP2C9 was “MichaelisMenten” each time. The “v (1.25 uM)” value came out at 0.53 min⁻¹ on CYP3A4 [2] (turnover rate at 1.25 uM substrate, 100 mM K+ phosphate, pH 8.0) and 1.28 min⁻¹ on CYP2C9 (turnover rate at 1.25 uM substrate, 200 mM Tris-HCl buffer, pH 7.5). In addition, the “v (10 uM)” value amounted to 3.40 min⁻¹ on CYP3A4 [2] (turnover rate at 10 uM substrate, 100 mM K+ phosphate, pH 8.0) and 2.84 min⁻¹ on CYP2C9 (turnover rate at 10 uM substrate, 200 mM Tris-HCl buffer, pH 7.5).

`O=c1ccc2nc3ccc(OCOCc4ccccc4)cc3oc-2c1` [BOMR, Benzyloxymethylresorufin]: the type of kinetics entry is reported as “Michaelis-Menten” at CYP3A4 [3] and “notMichaelis-Menten” on CYP 2B6. Also, the “v (1.25 uM)” value on CYP3A4 [3] (setting [15]) was 0.55 min⁻¹; at CYP 2B6 (setting [15]) it was 0.28 min⁻¹. The figures for the “v (10 uM)” value at CYP3A4 [3] (setting [16]) and at CYP 2B6 (setting [16]) were 0.88 min⁻¹ and 0.71 min⁻¹, respectively. Moreover, on CYP 2B6 (human, CYP 2B6 isozyme, — = too low to quantify), the Km (as a rule, the concentration of substrate that gives half-maximal velocity) was 0.73 µM. Besides, the kcat (in general, the number of substrate molecules converted per active site and unit of time at saturation) on CYP 2B6 (— = too low to quantify) was 0.013 s⁻¹. Also, the “CYP 3A4 turnover rate relative to BR” value on CYP3A4 [4] is given as “approximately five”. Also, the “signal to background versus prior commercially available substrate” value at CYP3A4 [5] is reported as “superior signal to background”.

On to `CN(C)CCC(c1ccc(Cl)cc1)c1ccccn1` (centres unmarked) [Chlorpheniramine], for which the Ki on CYP2D6 was found to be 2.5 µM.

On to `COc1cccc2c1C(=O)c1c(O)c3c(c(O)c1C2=O)C[C@@](O)(C(=O)CO)C[C@@H]3O[C@H]1C[C@H](N)[C@H](O)[C@H](C)O1` [Doxorubicin], for which, on CYP2D6, the Ki came out at 8 µM. Also, the “metabolism-dependent inhibitory activity against the CYP3A4 isozyme” value on CYP3A4 [6] was “at least partial metabolism-dependent inhibitory activity”. Besides, the inhibition (commonly the relative decrease from the control value, in per cent) at 20 min, 10 µM at CYP3A4 [7] (substrate BOMCC) turned out to be 81%; against CYP3A4 [7] (substrate BOMR) it was 29%; against CYP3A4 [7] (substrate DBOMF), 3%. Besides, the inhibition at 40 min, 10 µM on CYP3A4 [7] (substrate BOMCC) is 79%; against CYP3A4 [7] (substrate BOMR) it was 72%; against CYP3A4 [7] (substrate DBOMF), 33%.

B1: CYP 2C9 (Homo sapiens) (protein)
chain: MDSLVVLVLCLSCLLLLSLWRQSSGRGKLPPGPTPLPVIGNILQIGIKDISKSLTNLSKVYGPVFTLYFGLKPIVVLHGYEAVKEALIDLGEEFSGRGIFPLAERANRGFGIVFSNGKKWKEIRRFSLMTLRNFGMGKRSIEDRVQEEARCLVEELRKTKASPCDPTFILGCAPCNVICSIIFHKRFDYKDQQFLNLMEKLNENIKILSSPWIQICNNFSPIIDYFPGTHNKLLKNVAFMKSYILEKVKEHQESMDMNNPQDFIDCFLMKMEKEKHNQPSEFTIESLENTAVDLFGAGTETTSTTLRYALLLLLKHPEVTAKVQEEIERVIGRNRSPCMQDRSHMPYTDAVVHEVQRYIDLLPTSLPHAVTCDIKFRNYLIPKGTTILISLTSVLHDNKEFPNPEMFDPHHFLDEGGNFKKSKYFMPFSAGKRICVGEALAGMELFLFLTSILQNFNLKSLVDPKNLDTTPVVNGFASVPPFYQLCFIPV
For the molecule B1, the Km in series [8] was found to be 2.6 µM; in [9] it was 20 µM; in series [10], 7.7 µM; in series [11], 0.4 µM; in series [12], 70.9 µM; in [13], 43.0 µM. Moreover, the Michaelis constant (Km) in [14] was 4.5 µM. Also, the kcat is 0.0067 s⁻¹ in [8]; 0.00483 s⁻¹ in series [10]; 0.00667 s⁻¹ in series [12]; 0.035 s⁻¹ in series [13]; 0.075 s⁻¹ in [14]. In addition, the kcat/Km (usually the turnover number divided by the Michaelis constant) came out at 2564 M⁻¹ s⁻¹ in series [8]; 167 M⁻¹ s⁻¹ in series [9]; 628 M⁻¹ s⁻¹ in [10]; 952 M⁻¹ s⁻¹ in series [11]; 85 M⁻¹ s⁻¹ in [12]; 814 M⁻¹ s⁻¹ in series [13]. The kcat/Km in series [14] was 16666 M⁻¹ s⁻¹.

Values taken from patent publication US7132252B2, “Methods for detecting the interaction of compounds with cytochrome P450 using optical molecular sensors” (Invitrogen Corporation, priority 1998, dated 2006).
